From ChEMBL document CHEMBL1145705, “Flavonoids as inhibitors or enhancers of the cytotoxicity of tumor necrosis factor-alpha in L-929 tumor cells” (J Nat Prod, 1997) come the findings set out here.

Data set [1] relates to L929. As to the kind of experiment: Potentiation of recombinant human TNF-alpha-induced cytotoxicity of mouse L929 cells assessed as survivality preincubated for 15 mins before TNFalpha addition measured after 24 hrs by crystal violet staining. The format is functional, cell-based.
Data set [2] concerns L929. As to the kind of experiment: Potentiation of recombinant human TNF-alpha-induced cytotoxicity of mouse L929 cells assessed as survivality preincubated for 15 mins before TNFalpha addition measured after 24 hrs by [methyl-3H]thymidine incorporation assay. The format is functional, cell-based.
The test system of data set [3] is L929. Put plainly: Inhibition of recombinant human TNF-alpha-induced cytotoxicity of mouse L929 cells assessed as survivality preincubated for 15 mins before TNFalpha addition measured after 24 hrs by crystal violet staining. The format is functional, cell-based.
Data set [4] relates to L929. As to the kind of experiment: Inhibition of recombinant human TNF-alpha-induced cytotoxicity of mouse L929 cells assessed as survivality preincubated for 15 mins before TNFalpha addition measured after 24 hrs by [methyl-3H]thymidine incorporation assay. The format is functional, cell-based.
The subject of data set [5] is L929. Put plainly: Potentiation of recombinant human TNF-alpha-induced cytotoxicity of mouse L929 cells assessed as survivality treated with drug after 2 hrs of TNFalpha treatment. It counts as functional, cell-based.
Data set [6] relates to L929. Put plainly: Inhibition of recombinant human TNF-alpha-induced cytotoxicity of mouse L929 cells assessed as survivality treated with drug after 2 hrs of TNFalpha treatment. It counts as functional, cell-based.
The test system of data set [7] is L929. As to the kind of experiment: Potentiation of recombinant human TNF-alpha-induced cytotoxicity of mouse L929 cells assessed as survivality at 250 uM preincubated for 15 mins before TNFalpha addition measured after 24 hrs by [methyl-3H]thymidine incorporation assay. The format is functional.
The subject of data set [8] is L929. As to the kind of experiment: Potentiation of recombinant human TNF-alpha-induced cytotoxicity of mouse L929 cells assessed as survivality at 250 uM preincubated for 15 mins before TNFalpha addition measured after 24 hrs by crystal violet staining. The format is functional.
For data set [9], the system named is L929. As to the kind of experiment: Cytotoxicity against mouse L929 cells at 1 uM preincubated for 15 mins before TNFalpha addition measured after 24 hrs by [methyl-3H]thymidine incorporation assay. The format is cell-based. The settings on record: l929, 24 h.
Data set [10] has as its system L929. Put plainly: Cytotoxicity against mouse L929 cells at 1 uM preincubated for 15 mins before TNFalpha addition measured after 24 hrs by crystal violet staining. It counts as cell-based. The settings on record: l929, 24 h.

Structures are written as SMILES. Activity calls are given as the source filed them. No cut-off for these calls is given here.

As for `O=c1cc(-c2ccc(O)cc2)oc2cc(O)cc(O)c12`, the result in the data set on L929 [1] and in the data set with L929 [2] was Active.
Consider `O=c1cc(-c2ccccc2)oc2cc(O)cc(O)c12`, for which the result with L929 [1] and in the data set on L929 [2] was Active.
Turning to `O=C1c2c(O)cc(O)cc2O[C@H](c2ccc(O)c(O)c2)[C@H]1O` [(+)-TAXIFOLIN], the EC50 worked out at 200 µM with L929 [3] and 240 µM in the data set on L929 [4].
Consider `Oc1cc(O)c2c(c1)O[C@H](c1ccc(O)c(O)c1)[C@H](O)C2` [(-)-EPICATECHIN], for which the EC50 was determined as 300 µM in the data set with L929 [3] and 350 µM in the data set with L929 [4].
In the case of `O=C1C[C@@H](c2ccc(O)c(O)c2)Oc2cc(O)cc(O)c21` [ERIODICTYOL], the results for the EC50 in the data set with L929 [3] and with L929 [4] were 4 µM and 6 µM, respectively.
As to `O=c1c(O)c(-c2ccccc2)oc2cc(O)cc(O)c12` [GALANGIN], in the data set with L929 [3], the Activity entry is “Dose-dependent effect”. The EC50 with L929 [3] worked out at 40 µM; with L929 [4], 50 µM. Besides, the outcome in the data set with L929 [5] and in the data set with L929 [6] was Active.
Turning to `COc1ccc(-c2oc3cc(O)cc(O)c3c(=O)c2O)cc1` [KAEMPFERIDE], the Activity entry in the data set with L929 [3] was “Dose-dependent effect”. Further, the EC50 in the data set on L929 [3] was 129 µM; in the data set with L929 [4], 140 µM. Also, the result in the data set on L929 [5] and in the data set with L929 [6] was Active.
Consider `O=c1c(O)c(-c2ccc(O)cc2)oc2cc(O)cc(O)c12` [KAEMPFEROL], for which, in the data set with L929 [3], the Activity entry was “Dose-dependent effect”. The EC50 in the data set on L929 [3] came to 20 µM; in the data set with L929 [4], 25 µM. Moreover, the outcome with L929 [5] and with L929 [6] was Active.
On to `O=c1cc(-c2ccc(O)c(O)c2)oc2cc(O)cc(O)c12` [LUTEOLIN], for which the EC50 in the data set with L929 [3] and in the data set on L929 [4] was over 250 µM in each case.
For `O=c1c(O)c(-c2ccc(O)cc2O)oc2cc(O)cc(O)c12` [MORIN], in the data set on L929 [3], the Activity result was “Dose-dependent effect”. Moreover, the values for the EC50 with L929 [3] and with L929 [4] were 120 µM and 115 µM, respectively. Further, the outcome in the data set with L929 [5] and with L929 [6] was Active.
Turning to `O=c1c(O)c(-c2cc(O)c(O)c(O)c2)oc2cc(O)cc(O)c12` [MYRICETIN], the Activity result in the data set on L929 [3] is “Dose-dependent effect”. Moreover, the EC50 came to 55 µM in the data set on L929 [3] and 59 µM in the data set with L929 [4]. Also, the result in the data set with L929 [5] and with L929 [6] was Active.
In the case of `O=C1C[C@@H](c2ccc(O)cc2)Oc2cc(O)cc(O)c21` [NARINGENIN], the outcome in the data set with L929 [1] and in the data set on L929 [2] was Active. Moreover, the Activity in the data set on L929 [7] is given as 31%; in the data set on L929 [8], 25%.
Take `CC(Cc1ccc(O)c(O)c1)C(C)Cc1ccc(O)c(O)c1` (configuration not stated) [NORDIHYDROGUAIARETIC ACID]: the EC50 with L929 [3] stood at 28 µM; with L929 [4], 19 µM.
As to `O=c1c(O)c(-c2ccc(O)c(O)c2)oc2cc(O)cc(O)c12` [QUERCETIN], in the data set on L929 [3], the Activity entry is “Dose-dependent effect”. Besides, the EC50 in the data set on L929 [3] worked out at 20 µM; in the data set on L929 [4] it was 26 µM. Further, the outcome in the data set with L929 [5] and in the data set on L929 [6] was Active.
Take `C[C@@H]1O[C@@H](OC[C@H]2O[C@@H](Oc3c(-c4ccc(O)c(O)c4)oc4cc(O)cc(O)c4c3=O)[C@H](O)[C@@H](O)[C@@H]2O)[C@H](O)[C@H](O)[C@H]1O` [RUTIN]: in the data set with L929 [3], the Activity entry is “Dose-dependent effect”. For the same molecule, the EC50 in the data set on L929 [3] is 250 µM; in the data set with L929 [4], over 250 µM. In addition, the result in the data set with L929 [5] and in the data set with L929 [6] was Active.
For the molecule `CN[C@@H]1C[C@H]2O[C@@](C)([C@@H]1OC)n1c3ccccc3c3c4c(c5c6ccccc6n2c5c31)C(=O)NC4` [STAUROSPORINE], the Activity result with L929 [1] was “Dose-dependent effect”; with L929 [9], “Toxic”; in the data set with L929 [2] it was “Dose-dependent effect”; in the data set with L929 [10], “Toxic”.
